Experimental data: patent publication US6025333A, “Treatment of CNS tumors with metalloprotease inhibitors” (Erziehungsdirektion of the Canton Zurich, priority 1995, dated 2000)
Read-outs that look alike come from different tables or passages of the source. Square brackets hold non-standard residues; d marks the D form. Peptide text beside a SMILES is read from it. * marks the point of attachment. Sta = CC(C)C[C@H](N)[C@@H](O)CC(=O)O; Isovaleryl = CC(C)CC(=O)*; Cbz = O=C(OCc1ccccc1)*

How the values were obtained:
[1] = test system: 3T3 cells; test: Treatment of CNS myelin with C6 plasma membranes, then 3T3 spreading and 3H-thymidine incorporation; assay type: cell-based, mouse; settings: for effect on the C6 plasma membrane effect (neutralization of CNS myelin inhibitory activity): blockers added to C6 plasma membranes
Experimental: (§1) Myelin from rat spinal cord (CNS) or sciatic nerve (PNS) purified on a discontinuous sucrose gradient as described in Section 6.1.5., was dried overnight onto PLYS coated wells (20 μg protein/well of 100 mm^2 surface). Unbound membranes were removed by three washes with Ca^2+ /Mg^2+ -free Hank's solution. Myelin coated wells were immediately used in substrate testing assays by the addition of 9,000 cells (C6, 3T3, or B16) per cm^2. Alternatively, we used extracted CNS myelin protein, or SDS-PAGE purified 35 and 250 kD inhibitory proteins reconstituted in liposomes (see Section 7.1.5, supra). Experiments were scored at different time points using a phase contrast microscope equipped with a photocamera. Quantifications were done using a surface integration program; three arbitrary fields were photographed for each well at a magnitude of 80×, at least 25 cells per picture were measured. Each point represents the mean of at least 3 wells±SEM. Results are expressed as μ^2 of projected cell surface, or as degree, which was calculated by subtracting from the projected surface value of a spreading cell, the surface value of a completely spheric cell.
C6 cells grown to 80% confluency were washed twice with Hank's medium, and harvested in 20 ml 8.5% sucrose, 50 mM NaCl, 10 mM Tris buffer, pH 7.4, using a rubber policeman. After mechanical homogenization through a series of needles of decreasing size, a low purity plasma membrane fraction was obtained by centrifugation (5 minutes at 3000× g, 10 minutes at 8000× g, and then 2 hours at 100,000× g). A higher purity fraction was isolated by loading the material on a discontinuous sucrose gradient, containing 50 mM NaCl, 10 mM Tris, pH 7.4 (Quigley, 1976, J. Cell Biol. 71: 472-486). 20-40% sucrose interphase (C6 plasma membranes fraction) and 40-60% sucrose interphase (C6 mitochondrial fraction) were collected, washed in Hank's medium and resuspended in MEM.
CNS myelin coated PLYS wells were prepared as described in the previous section, but instead of being immediately tested as substrate, they were first incubated with 50 μl of C6 plasma membranes (containing 0.8 mg protein/ml MEM) at 37° for 30 minutes. Dishes were then rinsed twice with Hank's medium and immediately used as substrates for 3T3 cells. In some experiments, protease blockers were added to the membranes using 10 times concentrated solutions.

[2] = test system: C6 cells; test: C6 cell spreading on CNS myelin protein liposomes, antibody and/or 1,10-phenanthroline; assay type: cell-based, rat; settings: 0.3 mM 1,10-phenanthroline
Experimental: Substrates were tested as described in Section 7.1.2 supra). Myelin fractions or liposomes in medium A were dried onto the wells of polylysine-coated Greiner dishes (Greiner, Murtingen, FRG). […] When substrates were tested in the presence of antibody, bound substrates were incubated in the presence of undiluted hybridoma supernatants or in the presence of 1:30 dilutions (in Hank's medium) of antisera. After 15 minutes at 37° C., four-fifths of the antibody-containing medium was removed and substituted with cell-containing medium. An analogous preincubation procedure was used in experiments aimed at testing HBO nonpermissiveness. 3T3 experiments were usually scored after a culture period of 1 hour, whereas SCG neurons were allowed to grow processes for 24 hours in culture. When 3T3 cells were preincubated with hybridoma supernatant, incubations were performed in gently agitated suspensions for a period of 15 minutes at room temperature. Cells were then sedimented, resuspended in culture medium, and added to substrate-adsorbed Greiner dish wells. 3T3 cells were added at a density of 30,000 cells per cm^2, and SCG neurons were added at a density of 20,000 cells per cm^2.
as §1, with “Myelin coated wells were immediately used in substrate testing assays by the addition of 9,000 cells (C6, 3T3, or B16) per cm^2. Alternatively, we used extracted CNS myelin protein, or SDS-PAGE purified 35 and 250 kD inhibitory proteins reconstituted in liposomes (see Section 7.1.5, supra).” left out, “Each point represents the mean of at least 3 wells±SEM.” left out

[3] = test system: C6 cells; test: C6 cell spreading on PLYS or CNS myelin with protease inhibitors; assay type: cell-based, rat; settings: for activity at 300 µM: C6, 2.5 h; for activity at 300 µM / Spreading on: PLYS (% of control on PLYS) / Spreading on: CNS (% of control on PLYS): 150 minutes; for inhibition at 300 µM: C6; for inhibition at 300 µM / Inhibition on CNS (%): PLYS value minus CNS myelin value
Experimental: Rat C6, mouse NIH 3T3 and B16 cells were cultured in Dulbecco's modified Eagle's medium (DMEM) supplemented with 10% fetal calf serum (FCS), usually to maximally 70-80% confluency. Cells were harvested with a short trypsin treatment (0.1% in Ca^2+ /Mg^2+ -free Hank's medium for 90 seconds) stopped by addition of FCS in excess, collected by centrifugation. Cells were resuspended in either DMEM/FCS or defined serum-free medium (MEM) and used for experiments. Dissociated rat CNS glial cells were prepared starting from optic nerves of 6-7 days old Lewis rats as described in Section 6.1.1, supra and plated into poly-D-lysine (PLYS) coated wells (100 mm^2, 100 μl medium) at a density of 20,000 cells per well. The culture medium was an enriched L15 medium with 5% rat serum, penicillin and streptomycin. C6, 3T3 and B16 cells were added to 2 day old cultures at a concentration of 30,000 cells per well, incubated for two hours and fixed with warm 4% formalin in phosphate buffer. Inhibitory oligodendrocytes were identified by double labelling using the specific antibodies O1 and O4 (see Section 6.1.3, supra).
as §1

[4] = test system: C6 cells; test: C6 cell attachment and spreading on rat cerebellar frozen sections; assay type: cell-based; settings: 1,10-phenanthroline 50, 100, 200 and 300 μM; cbz-tyr-tyr 100 μM
Experimental: Adult rat cerebellum frozen sections were prepared and dried on glass coverslips. 70,000 C6, 3T3, or B16 cells in 100 μl were added to each well containing slices previously rinsed with cold DMEM/FCS. Cultures were incubated for 2 days at 37° C. Cultures were then fixed and stained with cresyl violet. Three to four cerebellum slices were used per point per experiment, with each experiment being repeated at least 2 times.

[5] = test system: C6 cells; test: C6 cell infiltration into optic nerve explants; assay type: cell-based, rat; settings: nerves injected with 4 μl of 3 mM solution; medium 0.5 mM peptide; 14 days
Experimental: Optic nerve and sciatic nerve explants were prepared as described (Schwab and Thoenen, 1985, J. Neurosci. 5:2415-2423). Briefly, the nerves were rapidly dissected from about 8 week old male rats, cleaned from the meninges, 3 times frozen and thawed using liquid nitrogen, and placed under a teflon ring (diameter 13 mm, thickness 1 mm) sealed to a culture dish with silicon grease. Two chambers connected only by the explants were in this way obtained. 300,000 C6, 3T3 or B16 cells were plated in the inner chamber in DMEM/FCS and incubated for 5 to 20 days. The medium was changed every other day. Cultures were fixed overnight with 4% formalin. The nerve explants were mounted with Tissue-Tek, 10 to 15 μm sections were cut in a cryostate and collected on gelatine coated cover slips. After drying at room temperature overnight, the sections were stained in 0.75% cresyl violet, and evaluated. The infiltrated cells were counted for each 0.1 mm of the explants, starting from the tip where cells were added. Due to the 15 day incubation, the explants were often different in diameter. Therefore, only the central part of the nerves (0.25 mm) were considered, since only this part of the explants presented a good histological quality. Inhibition experiments were performed with nerve explants previously injected from both sides with 2 μl of 3 mM cbz-tyr-tyr or cbz-ala-phe solutions.

[6] = Rattus norvegicus, inhibitor 0.3 mM, read-out: Spreading on: PLYS (% of control on PLYS)
[7] = Rattus norvegicus, inhibitor 0.3 mM, CNS myelin, read-out: Spreading on: CNS (% of control on PLYS)
[8] = Rattus norvegicus, inhibitor 0.3 mM

| Compound | effect on the C6 plasma membrane effect (neutralization of CNS myelin inhibitory activity) [1] | inhibition of C6 cell spreading on CNS myelin [3] | activity at 300 µM [3, 6] [%] | activity at 300 µM [3, 7] [%] | inhibition at 300 µM [3, 8] [%] | distribution and behavior of C6 cells on white matter of cerebellar frozen sections [4] | Spreading on: PLYS (% of control on PLYS) ([3]; inhibitor 0.3 mM) | Spreading on: CNS (% of control on PLYS) ([3]; inhibitor 0.3 mM, CNS myelin) | Inhibition on CNS (%) ([3]; inhibitor 0.3 mM) | other results |
| --- | --- | --- | --- | --- | --- | --- | --- | --- | --- | --- |
| c1cnc2c(c1)ccc1cccnc12 [1,10-phenanthroline] | completely blocked | up to 67% | 97 | 30 | 67 | dramatically changed the distribution and behavior of C6 cells on the white matter areas |  |  |  | 3T3 Cell Spreading (%) ([1]; 3T3 on CNS myelin, alone or preincubated with C6 PM without/with the named inhibitor, 150 minutes, PLYS = 100): 17%; 3H-Thymidine Incorporation (%) ([1]; 3T3 on CNS myelin, alone or preincubated with C6 PM without/with the named inhibitor, 20 hours, PLYS = 100): 50%; spreading value on: CNS lipos. ([2]; substrate preadsorbed with the named antibody or none, 150 minutes): 1.35 μm^2 10^3; spreading value on: PLYS ([2]; with the named antibody or none, 150 minutes): 2.49 μm^2 10^3; % inhibition on CNS lipos. ([2]; with the named antibody or none, relates to PLYS): 46%; concentrations exerting a general toxic effect on all substrates ([3]; C6 cells, 3 hours, FIG. 22): above 0.5 mM; IC50 ([3]; Rattus norvegicus, C6 cells on CNS myelin, 3 hours (FIG. 22), read-out: Half maximal inhibition of C6 spreading on CNS myelin (IC50)): 200 µM; effect on C6 cell spreading on PLYS, glass and PNS myelin ([3]; concentrations up to 0.5 mM): did not impair C6 cell spreading |
| O=C(N[C@@H](Cc1ccc(O)cc1)C(=O)N[C@@H](Cc1ccc(O)cc1)C(=O)O)OCc1ccccc1 [cbz-tyr-tyr, carbobenzoxy-tryosine-tyrosine] (Cbz-Tyr-Tyr-OH) |  |  |  |  |  | dramatically changed the distribution and behavior of C6 cells on the white matter areas | 101 % of control on PLYS | 56 % of control on PLYS | 45 | C6 cell infiltration into optic nerve explants [5]: inhibited C6 cell infiltration in all the 8 nerves examined |
| CC(=O)N[C@@H](CC(C)C)C(=O)N[C@@H](CC(C)C)C(=O)N[C@H](C=O)CCCNC(=N)N [leupeptine] | did not inhibit this effect |  |  |  |  |  | 91 % of control on PLYS | 83 % of control on PLYS | 8 |  |
| CC(C)CC(=O)N[C@H](C(=O)N[C@H](C(=O)N[C@@H](CC(C)C)[C@@H](O)CC(=O)N[C@@H](C)C(=O)N[C@@H](CC(C)C)[C@@H](O)CC(=O)O)C(C)C)C(C)C [pepstatine] (Isovaleryl-VV[Sta]A[Sta]-OH) | did not inhibit this effect |  | 98 | 95 | 3 |  |  |  |  |  |
| carbobenzoxy-glycine-phenylalanine-amide [cbz-gly-phe-NH2] | completely blocked | 55% |  |  |  |  |  |  |  | Spreading on: PLYS (% of control on PLYS) ([3]; inhibitor 1.0 mM): 100 % of control on PLYS; Spreading on: CNS (% of control on PLYS) ([3]; inhibitor 1.0 mM, CNS myelin): 45 % of control on PLYS; Inhibition on CNS (%) ([3]; inhibitor 1.0 mM): 55% |
